Test results from publication PMC9410914 (2022).

Tested on: WT R-mRNA+30 (I-2S8) (RNA, riboswitch) GGGCAGUGAGCAACAAAAUGCUCACCUGGGUCGCAGUAACCCCAGUUAACAAAACAAGGGAGGUAAUUUUGUGCCCAAAAAAAGAAUAAAAGAUUUAGCU
Experiment: single-molecule TIRF (SiM-KARB), 30S binding/dissociation rates vs preQ1, global Hill fit
Details: K+ 100 mM, Mg2+ 5 mM, NH4+ 5 mM, Ca2+ 0.5 mM; apparent; Tris-polymix pH 7.5, spermidine, putrescine; 20 nM Cy5-30S ribosomal subunits present; indirect readout

NCc1c[nH]c2nc(N)[nH]c(=O)c12
K1/2: ~ 48 nM
